Assay results: patent US11584766B2, “Nicotinamide phosphoribosyltransferase inhibitors and methods for use of the same” (THE TRUSTEES OF INDIANA UNIVERSITY, priority 2018, dated 2023)
pIC50: −log10 of the molar value. Structures can show the parent of a compound that is named as a salt. Where two headings read alike, the source gives them in different places.

Experiments:
NAMPT = biological target: T1, NAMPT (Homo sapiens, UniProt P43490); assay: CycLex NAMPT Colorimetric Assay; type: biochemical; conditions: for pIC50: CycLex NAMPT Colorimetric Assay Kit, read-out: NAMPT Inhibition IC50
T1 construct: purchased MBL International Corporation (CycLex NAMPT Colorimetric Assay Kit Ver.2)
T1 sequence (P43490 whole entry): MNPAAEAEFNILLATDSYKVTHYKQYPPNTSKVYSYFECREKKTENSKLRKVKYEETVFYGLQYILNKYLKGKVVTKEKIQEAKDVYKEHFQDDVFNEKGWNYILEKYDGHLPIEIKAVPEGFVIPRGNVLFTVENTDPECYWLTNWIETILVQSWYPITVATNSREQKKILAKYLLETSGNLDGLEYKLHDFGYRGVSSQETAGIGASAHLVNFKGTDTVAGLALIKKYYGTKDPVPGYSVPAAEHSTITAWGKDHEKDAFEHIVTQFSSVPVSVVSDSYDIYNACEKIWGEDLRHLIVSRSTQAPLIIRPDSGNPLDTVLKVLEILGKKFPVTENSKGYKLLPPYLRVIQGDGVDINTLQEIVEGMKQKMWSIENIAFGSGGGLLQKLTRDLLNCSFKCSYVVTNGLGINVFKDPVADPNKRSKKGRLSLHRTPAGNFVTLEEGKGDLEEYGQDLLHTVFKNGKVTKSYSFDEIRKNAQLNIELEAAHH
Procedure: The ability of the compounds of the disclosure to inhibit NAMPT was determined using the CycLex NAMPT Colorimetric Assay Kit Ver.2 by MBL International Corporation.
The assay detects NAMPT activity in recombinant NAMPT or endogenous NAMPT immunoprecipiated from cell lysates according to the scheme shown in FIG. 3. In this method, NAMPT converts nicotinamide to nicotinamide mononucleotide (“NMN”). Subsequently, nicotinamide mononucleotide adenylyltransferase 1 (“NMNAT1”) converts NMN to NAD^+. Resultant NAD^+ can be measured by enzyme cycling reaction using alcohol dehydrogenase (“ADH”), diaphorase and WST-1.

[1] = Solubility (2.5% v/v DMSO/water); type: physicochemical
[2] = test system: human pulmonary artery smooth muscle cells (hPASMCs); assay: BrdU Assay (proliferation), hPASMC; type: cell-based
Procedure: (§1) The effect of the compounds disclosed herein on the viability, proliferation, and apoptosis of human pulmonary artery endothelial cells (“hPAECs,”) and human pulmonary artery smooth muscle cells (“hPASMCs”) was determined using the PrestoBlue Assay (viability), CYQuant Direct or BrdU Assay (proliferation) or Tunel Assay (apoptosis), as described below.
(§2) HPAECs (1×10^4 cells/well) or HPASMCs (2.5×10^3 cells/well) were seeded in 96-well plates for 24 h in full-serum tissue culture medium. The full medium was removed prior to treatment with a NAMPT inhibitor prepared in medium containing 0.1% serum. NAMPT inhibitors were solubilized in 100% DMSO, unless otherwise indicated, prior to preparation of the dose response curve in 100% DMSO. The treatment dose response curve was diluted in 0.1% serum tissue culture medium and administered to cells for 24 h. DMSO diluted in the same medium was used as the vehicle control. Cell viability was measured according to the manufacturer's protocol by adding the PrestoBlue Cell Viability Reagent (ThermoFisher Scientific, #A13261) to cells for 20 min at 37° C. in a tissue culture incubator, followed by reading fluorescence at ex560/em590. Cell proliferation was measured, either in the same wells or in separate experiments, by adding the CyQuant Direct Confirmation Reagent (ThermoFisher Scientific, #C35011) for 1 h at 37° C. in a tissue culture incubator, followed by reading fluorescence at ex485/em538. Proliferation was also measured, in separate experiments, using the BrdU Cell Proliferation Assay (Calbiochem, #QIA58). After treatment with a NAMPT inhibitor for 24 h, BrdU was added to the cells in the presence of the inhibitor, for an additional 24 h and BrdU incorporation was detected according to the manufacturer's protocol. Apoptosis was analyzed by seeding cells (1×10^5 cells/well) in 6-well plates for 24 h in full-serum medium, followed by treatment with a NAMPT inhibitor for 24 h in full-serum medium. Tunel staining and detection was performed using the Tunel Assay Kit (Abcam, #ab66110) according to the manufacturer's protocol.

[3] = test system: human pulmonary artery endothelial cells (hPAECs); assay: BrdU Assay (proliferation), hPAEC; type: cell-based; conditions: for effect on HPAEC proliferation (BrdU assay): dose response, FIG. 6; for IC50: Homo sapiens, Endothelial cell
Procedure: as §1, §2

[4] = test system: human pulmonary artery endothelial cells (hPAECs); assay: PrestoBlue Assay (viability), hPAEC; type: cell-based; conditions: for effect on HPAEC viability: dose response, FIG. 4
Procedure: as §1, §2

[5] = test system: human pulmonary artery endothelial cells (hPAECs); assay: CyQUANT Direct Assay (proliferation), hPAEC; type: cell-based; conditions: for effect on HPAEC proliferation (CYQuant Direct assay): dose response, FIG. 5
Procedure: as §1, §2

| pIC50 (NAMPT) | SMILES | other results |
| --- | --- | --- |
| ~7.00 | O=C(/C=C/c1cccnc1)NCCCCCCn1ccc2cc(OCc3ccccc3)ccc21 [DGMS-RAR-6•HCl] | inhibition at 10 µM (NAMPT): 97% |
| 6.43 | CC[Si]1(CC)c2ccccc2N(C(=O)CCCCCNC(=O)CCc2cccnc2)C1C (stereo not shown) [DGMS-RAR-5H2] | – |
| 7.33 | CC1Cc2ccccc2N1CCCCCCNC(=O)/C=C/c1cccnc1 (stereo not shown) [DGMS-RAR-1•HCl] | – |
| 6.20 | [2H][C@@H](C(=O)NCCCCCC(=O)N1c2ccccc2CC1C)[C@@H]([2H])c1cccnc1 (stereo partly shown) [DGMS-RAR-1 D2] | – |
| 6.18 | [2H][C@@H](C(=O)NCCCCCCn1ccc2cc(OC)ccc21)[C@@H]([2H])c1cccnc1 [5.2.3f D2] | – |
| 6.41 | O=C(/C=C/c1cccnc1)NCCCCCCn1c(-c2ccccc2)cc2cc3c(cc21)OCO3 | – |
| 5.92 | O=C(CCc1cccnc1)NCCCCCCn1ccc2cc(O)ccc21 [5.2.3t H2] | – |
| 7.00 | COC(=O)Cc1cn(CCCCCCNC(=O)/C=C/c2cccnc2)c2ccccc12 [5.2.3h] | – |
| – | CC1Cc2ccccc2N1C(=O)CCCCCNC(=O)/C=C/c1cccnc1 (stereo not shown) | IC50 ([2]; Homo sapiens): 51.9 µM; effect on HPAEC proliferation (BrdU assay) [3]: dose-dependently decrease cell proliferation |
| 6.64 | O=C(/C=C/c1cccnc1)NCCCCCCn1ccc2ccncc21 [5.2.3b] | – |
| ~5.00 | O=C(CCc1cccnc1)NCCCCCCn1c(-c2ccccc2)cc2ccccc21 | – |
| 6.91 | O=C(/C=C/c1cccnc1)NCCCCCCn1c(-c2ccccc2)cc2cc(O)c(O)cc21 | – |
| 6.24 | O=C(CCc1cccnc1)NCCCCCCn1ccc2cc(OCc3ccccc3)ccc21 [DGMS-RAR-6 H2] | – |
| 7.14 | O=C(/C=C/c1cccnc1)NCCCCCC(=O)N1CCCCc2ccccc21 [DGMS-RAR-3] | – |
| 7.39 | O=C(/C=C/c1cccnc1)NCCCCCC(=O)N1c2ccccc2CC1c1ccccc1 (stereo not shown) [DGMS-RAR-7] | effect on HPAEC viability [4]: dose-dependently decrease cell viability; IC50 ([4]; hPAEC, 24 h treatment): 1.59 µM; IC50 [2]: 35400 µM; effect on HPAEC proliferation (CYQuant Direct assay) [5]: dose-dependently decrease cell proliferation; IC50 ([5]; hPAEC, 24 h treatment): 1 µM; IC50 [3]: 95.8 µM; effect on HPAEC proliferation (BrdU assay) [3]: dose-dependently decrease cell proliferation |
| 6.72 | [2H][C@@H](C(=O)NCCCCCC(=O)N1CCc2cc(O)ccc21)[C@@H]([2H])c1cccnc1 | – |
| 6.01 | Cc1cc2ccccc2n1CCCCCCNC(=O)CCc1cccnc1 | – |
| 5.64 | [2H][C@@H](C(=O)NCCCCCC(=O)N1C[Si](C)(C)c2ccccc21)[C@@H]([2H])c1cccnc1 [DGMS-RAR-4D2] | – |
| 7.68 | COCCOCCOCCOCCOC(=O)Cc1cn(CCCCCCNC(=O)/C=C/c2cccnc2)c2ccccc12 [DGMS-RAR-PEG2] | Solubility (2.5% v/v DMSO/water) [1]: Moderate; inhibition at 10 µM (NAMPT): 97%; effect on HPAEC viability [4]: dose-dependently decrease cell viability |
| 5.98 | O=C(O)CC1CN(C(=O)CCCCCNC(=O)/C=C/c2cccnc2)c2ccccc21 (stereo not shown) [DGMS-RAR-PEG3A] | – |
| 6.18 | [2H][C@@H](C(=O)NCCCCCC(=O)N1c2ccccc2[Si](CC)(CC)C1C)[C@@H]([2H])c1cccnc1 (stereo partly shown) [DGMS-RAR-5D2] | – |
| 6.81 | O=C(/C=C/c1cccnc1)NCCCCCCn1ccc2cc(I)ccc21 [5.2.3l] | – |
| 6.77 | Cc1ccc2c(ccn2CCCCCCNC(=O)/C=C/c2cccnc2)c1 [5.2.3g] | – |
| 6.00 | O=C(/C=C/c1cccnc1)NCCCCCCn1ccc2cc(OCc3ccccc3)ccc21 [DGMS-RAR-6] | – |

| pIC50 (NAMPT) | SMILES | other results |
| --- | --- | --- |
| 5.82 | Cc1ccc2c(ccn2CCCCCCNC(=O)CCc2cccnc2)c1 | – |
| 7.04 | [2H][C@@H](C(=O)NCCCCCCn1c(-c2ccccc2)cc2ccccc21)[C@@H]([2H])c1cccnc1 | – |
| > 8.00 | CCOC(=O)Cc1cn(CCCCCCNC(=O)/C=C/c2cccnc2)c2ccccc12 [DGMS-RAR-PEG2E] | inhibition at 10 µM (NAMPT): 99% |
| 6.17 | COc1ccc2c(ccn2CCCCCCNC(=O)CCc2cccnc2)c1 | – |
| 7.40 | O=C(O)Cc1cn(CCCCCCNC(=O)/C=C/c2cccnc2)c2ccccc12 [DGMS-RAR-PEG2A] | inhibition at 10 µM (NAMPT): 98% |
| 7.68 | COCCOCCOCCOCCOC(=O)CC1CN(C(=O)CCCCCNC(=O)/C=C/c2cccnc2)c2ccccc21 (stereo not shown) [DGMS-RAR-PEG3] | Solubility (2.5% v/v DMSO/water) [1]: Good; effect on HPAEC viability [4]: dose-dependently decrease cell viability; effect on HPAEC proliferation (CYQuant Direct assay) [5]: dose-dependently decrease cell proliferation |
| 6.63 | [2H][C@@H](C(=O)NCCCCCCn1ccc2cc(OCc3ccccc3)ccc21)[C@@H]([2H])c1cccnc1 (relative stereo) [DGMS-RAR-6 D2] | – |
| 5.80 | C[Si]1(C)CN(C(=O)CCCCCNC(=O)CCc2cccnc2)c2ccccc21 [DGMS-RAR-4H2] | – |
| 7.36 | CCOC(=O)CC1CN(C(=O)CCCCCNC(=O)/C=C/c2cccnc2)c2ccccc21 (stereo not shown) [DGMS-RAR-PEG3E] | – |
| 7.70 | COCCOCCOCCOCCOC(=O)CCC(=O)Oc1ccc2c(ccn2CCCCCCNC(=O)/C=C/c2cccnc2)c1 [DGMS-RAR-mPEG3] | Solubility (2.5% v/v DMSO/water) [1]: good; inhibition at 10 µM (NAMPT): 97% |
| 5.81 | O=C(/C=C/c1cccnc1)NCCCCCCn1ccc2cccnc21 | – |
| 7.15 | O=C(/C=C/c1cccnc1)NCCCCCCN1c2ccccc2CCc2cc(Br)ccc21 [5.2.3d] | – |
| 6.96 | O=C(/C=C/c1cccnc1)NCCCCCCn1ccc2cnccc21 [5.2.3k] | – |
| 7.31 | CC1Cc2ccccc2N1C(=O)CCCCCNC(=O)/C=C/c1cccnc1 (stereo not shown) [DGMS-RAR1] | – |
| 7.00 | O=C(CCc1cccnc1)NCCCCCCN1c2ccccc2CCc2ccccc21 [DGMS-RAR-5.2.3c H2] | – |
| 5.67 | O=C(CCc1cccnc1)NCCCCCCn1ccc2ccncc21 [5.2.3b H2] | – |
| 7.09 | Cc1cc2ccccc2n1CCCCCCNC(=O)/C=C/c1cccnc1 [5.2.3a] | – |
| 7.47 | CC1Cc2ccccc2N1C(=O)CCCCCNC(=O)/C=C/c1cccnc1 (stereo not shown) [DGMS-RAR-1•HO3SMe] | – |
| ~7.00 | O=C(/C=C/c1cccnc1)NCCCCCCn1ccc2cc(OCc3ccccc3)ccc21 [DGMS-RAR-6•HO3SMe] | % NAMPT Inhibition at 10 μM (NAMPT): 97% |
| 5.62 | O=C(CCc1cccnc1)NCCCCCCn1ccc2cccnc21 | – |
| 7.10 | O=C(/C=C/c1cccnc1)NCCCCCCN1c2ccccc2CCc2ccccc21 [DGMS-RAR-2] | IC50 ([2]; Homo sapiens): 1.5 µM; IC50 [3]: 1.31 µM; effect on HPAEC proliferation (BrdU assay) [3]: dose-dependently decrease cell proliferation |
| 6.85 | C[Si]1(C)CN(C(=O)CCCCCNC(=O)/C=C/c2cccnc2)c2ccccc21 [DGMS-RAR-4] | – |
| 7.59 | O=C(/C=C/c1cccnc1)NCCCCCCN1c2ccccc2CC1c1ccccc1 (stereo not shown) [5.2.3e] | – |

| SMILES | pIC50 (NAMPT) | other results |
| --- | --- | --- |
| CC[Si]1(CC)c2ccccc2N(C(=O)CCCCCNC(=O)/C=C/c2cccnc2)C1C (stereo not shown) [DGMS-RAR-5•OTs] | 7.99 | – |
| CC[Si]1(CC)c2ccccc2N(C(=O)CCCCCNC(=O)/C=C/c2cccnc2)C1C (stereo not shown) [DGMS-RAR-5•O3SMe] | 7.85 | Solubility (2.5% v/v DMSO/water) [1]: Good; inhibition at 10 µM (NAMPT): 99% |
| CC[Si]1(CC)c2ccccc2N(C(=O)CCCCCNC(=O)/C=C/c2cccnc2)C1C (stereo not shown) [DGMS-RAR-5] | 7.96 | IC50 ([2]; Homo sapiens): 102 µM; effect on HPAEC proliferation (BrdU assay) [3]: dose-dependently decrease cell proliferation |
| O=C(/C=C/c1cccnc1)NCCCCCCn1c(-c2ccccc2)cc2ccccc21 [DGMS-RARI•HO3SMe] | 7.92 | % NAMPT Inhibition at 10 μM (NAMPT): 98% |
| Cl.O=C(/C=C/c1cccnc1)NCCCCCCn1c(-c2ccccc2)cc2ccccc21 [DGMS-RARI•HCl] | 7.49 | Solubility (2.5% v/v DMSO/water) [1]: Moderate; % NAMPT Inhibition at 10 μM (NAMPT): 98% |
